Results on 21 molecules are retold here after patent US20250388568A1, “NLRP3 INHIBITORS” (Kodiak Sciences Inc., priority 2022, published 2025).

The test system of the assay is IL-1β release in U937 cells after NLRP3 activation. In words: IC50 determination of IL-1β release inhibition in U937 cells. Type of assay: cell-based. The settings on record: Homo sapiens, U-937; PMA-differentiated U937 cells, LPS priming 5 h, nigericin; average of at least three experiments; read-out: IL-1β IC50 (nM) U937 cells. Here is the method: Example 79: IC50 Determination of IL-1β Release Inhibition in U937 Cells The compounds of the present disclosure were tested for their ability to inhibit the IL-1β release in the U937 cells after NLRP3 activation. U937 cells (U-97 CRL 1593.2) were thawed following ATCC's initial culture procedure. […] The growth medium was composed of RPMI1640 medium (Quality Biological 112-040-101), 10% serum (Corning 35-076-CV), Pen/Strep (GIBCO 15140-122), 10 mM Hepes (Quality Biological 118-089-721), 2 mM Glutamax (GIBCO 35050-061), and 100 μg/mL normocin (Invivogen ant-nr)-Differentiating media was prepared by adding Phorbol 12-myristate 13-acetate (PMA) (AdipoGen AG-CN2-0010-M005) to growth medium. A cell suspension was prepared with differentiating media at 500k cells/ml. With an electronic pipet, 200 ul of cell suspension was added to each well (96w white plate Corning 3903) leaving columns 1 and 2 empty. Plates were left in the biosafety cabinet for 15 min and then placed in incubator for 90 hours. Priming media was prepared with assay medium consisting of RPMI 1640 medium, 10 mM Hepes, 2 mM Glutamax and Pen/Strep plus 1 μg/mL LPS (Invivogen tlrl-3pelps). Differentiating media was manually removed and 80 ul of priming media was added to each well with an electronic pipet. The plates were placed in the incubator for 5 hours. […] DMSO). An hour prior to the end of LPS incubation, a separate 96 deep well plate, Plate B, was prepared with 400 μL of assay media per well, then […] of the stock DMSO solution from Plate A was added to each corresponding well. Plate B was covered to avoid media evaporation. In a 50 mL tube, a solution of nigericin in assay media at 50 uM/mL concentration was prepared. To a new 96 deep well plate, Plate C, 200 μL of this nigericin containing media was dispensed to each well and 1 μL of the test compounds from Plate B to each corresponding well was added. Plate C was covered to avoid media evaporation. After 5 hours of priming, all the media from the LPS treated U937 cells was removed manually. To this plate of primed cells, 80 μL/well test compounds from Plate B (assay media+compound) was added in duplicate columns (5 compounds tested per plate). The plate was placed in an incubator for 30 min. […] The plate was placed back in the incubator for 1 hour. At the end of 1 hour, the supernatant from this test plate was transferred to a new 96 well V bottom polypropylene plate which was frozen immediately at -80° C. The plate was transferred to -20° C. the next day and awaited further determination of cytokine IL-Ip level. The release of IL-1β into the cell media was determined by MSD® Multi-Spot Assay System (V-Plex, IL-1B kit, […]-4). Following the manufacture's protocol and using the Alternate Protocol 3, Dilute-In-Plate protocol specifically, the level of IL-IP in the above collected supernatant plate was measured as electrochemiluminescent signals. Using MSD DISCOVERY WORKBENCH® analysis software, the signals were converted to the concentration of IL-1β in each well. The IC50 values of the compounds were calculated using the Graph Pad Prism software based on the IL-1β concentration determined. The detection range of IL-1β using MSD kit was approximately […] (based on various lots of standards purchased from MSD).

One may read the IC50 as the concentration that inhibits the measured activity by half. Consider `CC(C)n1nc(S(=O)(=O)NC(=O)Nc2c3c(c(F)c4c2CCC4)CCC3)cc1CN1CC[C@H](O)C1` [Example 67, (S)—N-((8-fluoro-1,2,3,5,6,7-hexahydro-s-indacen-4-yl)carbamoyl)-5-((3-hydroxypyrrolidin-1-yl)methyl)-1-isopropyl-1H-pyrazole-3-sulfonamide], for which the IC50 fell in the range of 5 to 50 nM. In the case of `N=S(=O)(NC(=O)Nc1c2c(cc3c1CCC3)CCC2)c1cc(CN)co1` (stereo not drawn) [Example 22, 4-(aminomethyl)-N-((1,2,3,5,6,7-hexahydro-s-indacen-4-yl)carbamoyl)furan-2-sulfonimidamide], the IC50 was in the range of 5 to 50 nM. As for `Cc1cc(S(=O)(=O)NC(=O)Nc2c3c(c(F)c4c2CCC4)CCC3)oc1CN1C[C@@H](O)[C@H](F)C1` [Example 54, N-((8-fluoro-1,2,3,5,6,7-hexahydro-s-indacen-4-yl)carbamoyl)-5-(((3R,4R)-3-fluoro-4-hydroxypyrrolidin-1-yl)methyl)-4-methylfuran-2-sulfonamide], the half-maximal inhibitory concentration (IC50) was less than 5 nM. Take `O=C(Nc1c2c(cc3c1CCC3)CCC2)NS(=O)(=O)c1cc(CN2CC(O)C2)co1` [Example 32, N-((1,2,3,5,6,7-hexahydro-s-indacen-4-yl)carbamoyl)-4-((3-hydroxyazetidin-1-yl)methyl)furan-2-sulfonamide]: the IC50 is 50 to 500 nM. `Cc1cc(S(=O)(=O)NC(=O)Nc2c3c(c(F)c4c2CCC4)CCC3)oc1CN1C[C@@H](F)[C@@H](O)C1` [Example 55, N-((8-fluoro-1,2,3,5,6,7-hexahydro-s-indacen-4-yl)carbamoyl)-5-(((3R,4S)-3-fluoro-4-hydroxypyrrolidin-1-yl)methyl)-4-methylfuran-2-sulfonamide]: the IC50 was in the range of 5 to 50 nM.

As to `CN(C(=O)c1coc(S(=N)(=O)NC(=O)Nc2c3c(cc4c2CCC4)CCC3)c1)[C@H]1C[C@H](N)C1` (stereo partly drawn) [Example 16], the IC50 is greater than 500 nM. Next, `CC(C)n1nc(S(=N)(=O)NC(=O)Nc2c3c(cc4c2CCC4)CCC3)cc1CN` (stereo not drawn) [Example 77, 5-(aminomethyl)-N-((1,2,3,5,6,7-hexahydro-s-indacen-4-yl)carbamoyl)-1-isopropyl-1H-pyrazole-3-sulfonimidamide]: 50 to 500 nM. On to `N=S(=O)(NC(=O)Nc1c2c(cc3c1CCC3)CCC2)c1cc(C(=O)N2CC3(CC(O)C3)C2)co1` (stereo not drawn) [Example 3, N-((1,2,3,5,6,7-hexahydro-s-indacen-4-yl)carbamoyl)-4-(6-hydroxy-2-azaspiro[3.3]heptane-2-carbonyl)furan-2-sulfonimidamide], for which the IC50 lay within 50 to 500 nM.

As to `Cc1cc(S(=O)(=O)NC(=O)Nc2c3c(c(F)c4c2CCC4)CCC3)oc1CN1CC[C@@H](O)C1` [Example 52, (R)-N-((8-fluoro-1,2,3,5,6,7-hexahydro-s-indacen-4-yl)carbamoyl)-5-((3-hydroxypyrrolidin-1-yl)methyl)-4-methylfuran-2-sulfonamide], the IC50 was in the range of 5 to 50 nM. To `CN(Cc1cc(S(=O)(=O)NC(=O)Nc2c3c(c(Cl)c4c2CCC4)CCC3)nn1C)CC1(O)CCC1` [Example 68, N-((8-chloro-1,2,3,5,6,7-hexahydro-s-indacen-4-yl)carbamoyl)-5-((((1-hydroxycyclobutyl)methyl)(methyl)amino)methyl)-1-methyl-1H-pyrazole-3-sulfonamide] belongs 5 to 50 nM. With `CN(Cc1cc(S(=O)(=O)NC(=O)Nc2c3c(c(F)c4c2CCC4)CCC3)nn1C)CC1(CO)CCOCC1` [Example 64, N-((8-fluoro-1,2,3,5,6,7-hexahydro-S-indacen-4-yl)carbamoyl)-5-((((4-(hydroxymethyl)tetrahydro-2H-pyran-4-yl)methyl)(methyl)amino)methyl)-1-methyl-1H-pyrazole-3-sulfonamide], the IC50 lay within 50 to 500 nM. With `N=S(=O)(NC(=O)Nc1c2c(cc3c1CCC3)CCC2)c1cc(CN2CC3(CC(O)C3)C2)co1` (stereo not drawn) [Example 2, N-((1,2,3,5,6,7-hexahydro-s-indacen-4-yl)carbamoyl)-4-((6-hydroxy-2-azaspiro[3.3]heptan-2-yl)methyl)furan-2-sulfonimidamide], the IC50 was in the range of 50 to 500 nM. Consider `Cc1oc(S(=O)(=O)NC(=O)Nc2c3c(cc4c2CCC4)CCC3)cc1CN(C)CC1(CO)CCC1` [Example 34, N-((1,2,3,5,6,7-hexahydro-s-indacen-4-yl)carbamoyl)-4-((((1-(hydroxymethyl)cyclobutyl)methyl)(methyl)amino)methyl)-5-methylfuran-2-sulfonamide], for which the IC50 was 5 to 50 nM. With `CN(Cc1cc(S(=O)(=O)NC(=O)Nc2c3c(c(F)c4c2CCC4)CCC3)nn1C)CC1(CO)CCC1` [Example 65, N-((8-fluoro-1,2,3,5,6,7-hexahydro-s-indacen-4-yl)carbamoyl)-5-((((1-(hydroxymethyl)cyclobutyl)methyl)(methyl)amino)methyl)-1-methyl-1H-pyrazole-3-sulfonamide], the 50% inhibitory concentration (IC50) lay in the range of 5 to 50 nM. Consider `CC(C)n1nc(S(=O)(=O)NC(=O)Nc2c3c(c(Cl)c4c2CCC4)CCC3)cc1CN(C)CC1(O)CCC1` [Example 69, N-((8-chloro-1,2,3,5,6,7-hexahydro-s-indacen-4-yl)carbamoyl)-5-((((1-hydroxycyclobutyl)methyl)(methyl)amino)methyl)-1-isopropyl-1H-pyrazole-3-sulfonamide], for which the IC50 was in the range of 5 to 50 nM. On to `Cc1oc(S(=O)(=O)NC(=O)Nc2c3c(c(Cl)c4c2CCC4)CCC3)cc1CN1CC[C@H](O)C1` [Example 49, (S)—N-((8-chloro-1,2,3,5,6,7-hexahydro-s-indacen-4-yl)carbamoyl)-4-((3-hydroxypyrrolidin-1-yl)methyl)-5-methylfuran-2-sulfonamide], for which the IC50 lay in the range of 5 to 50 nM. For `Cc1cc(S(=O)(=O)NC(=O)Nc2c3c(c(F)c4c2CCC4)CCC3)oc1CN1C[C@H](O)[C@@H](F)C1` [Example 56, N-((8-fluoro-1,2,3,5,6,7-hexahydro-s-indacen-4-yl)carbamoyl)-5-(((3S,4S)-3-fluoro-4-hydroxypyrrolidin-1-yl)methyl)-4-methylfuran-2-sulfonamide], the IC50 lay within 5 to 50 nM. With `N=S(=O)(NC(=O)Nc1c2c(cc3c1CCC3)CCC2)c1cc(CO[C@H]2C[C@H](N)C2)co1` (stereo partly drawn) [Example 18, 4-(((1r,3r)-3-aminocyclobutoxy)methyl)-N-((1,2,3,5,6,7-hexahydro-s-indacen-4-yl)carbamoyl)furan-2-sulfonimidamide], the IC50 was 5 to 50 nM. Turning to `Cc1oc(S(=O)(=O)NC(=O)Nc2c3c(c(F)c4c2CCC4)CCC3)cc1CN(C)CC1(CO)CCOCC1` [Example 46, N-((8-fluoro-1,2,3,5,6,7-hexahydro-s-indacen-4-yl)carbamoyl)-4-((((4-(hydroxymethyl)tetrahydro-2H-pyran-4-yl)methyl)(methyl)amino)methyl)-5-methylfuran-2-sulfonamide], the IC50 lay within 5 to 50 nM. With `CC(C)(O)c1cc(S(=O)(=O)NC(=O)Nc2c3c(cc4c2CCC4)CCC3)oc1CN1CCNCC1` [Example 70, N-((1,2,3,5,6,7-hexahydro-s-indacen-4-yl)carbamoyl)-4-(2-hydroxypropan-2-yl)-5-(piperazin-1-ylmethyl)furan-2-sulfonamide], the IC50 lay in the range of 5 to 50 nM.

For `Cc1oc(S(=O)(=O)NC(=O)Nc2c3c(c(F)c4c2CCC4)CCC3)cc1CN(C)CC1(CO)CCC1` [Example 47, N-((8-fluoro-1,2,3,5,6,7-hexahydro-s-indacen-4-yl)carbamoyl)-4-((((1-(hydroxymethyl)cyclobutyl)methyl)(methyl)amino)methyl)-5-methylfuran-2-sulfonamide], the IC50 lay in the range of 5 to 50 nM.
